Reference: patent US20250270172A1, “Pyrimidine Derivatives As Modulators of the 5-HT2A Serotonin Receptor Useful For The Treatment of Disorders Related Thereto” (Arena Pharmaceuticals, Inc., priority 2020, published 2025)

What follows are molecules tested against 5-HT2A (Homo sapiens (Human), UniProt P28223) (assay: Radioligand binding assay, [^3H]5-HT competition, 5-HT2A). Conditions: [^3H]5-HT radioligand, membranes of HEK293 cells expressing recombinant 5-HT2A; Ki from IC50 by Cheng-Prusoff; read-out: 5-HT2A serotonin binding Ki value.
Chain of 5-HT2A (P28223 whole entry): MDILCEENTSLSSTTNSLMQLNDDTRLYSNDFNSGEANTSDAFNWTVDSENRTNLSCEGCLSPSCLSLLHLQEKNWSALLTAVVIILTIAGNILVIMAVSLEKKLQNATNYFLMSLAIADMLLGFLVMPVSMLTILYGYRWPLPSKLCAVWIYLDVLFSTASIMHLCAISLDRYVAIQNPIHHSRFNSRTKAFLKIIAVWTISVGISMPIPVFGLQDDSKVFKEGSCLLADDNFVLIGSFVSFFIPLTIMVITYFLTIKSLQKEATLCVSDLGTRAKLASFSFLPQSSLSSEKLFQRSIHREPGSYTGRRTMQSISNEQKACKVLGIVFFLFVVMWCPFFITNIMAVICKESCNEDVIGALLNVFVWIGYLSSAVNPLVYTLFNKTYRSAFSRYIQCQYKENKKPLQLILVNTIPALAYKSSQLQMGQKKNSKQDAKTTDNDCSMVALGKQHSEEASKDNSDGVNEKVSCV

| Compound | Ki |
| --- | --- |
| COCCNCCOc1ccc(NC(=O)c2c(F)cnn2C)cc1-c1c(C)ncnc1C [Compound 375, N-(3-(4,6-dimethylpyrimidin-5-yl)-4-(2-((2-methoxyethyl)amino)ethoxy)phenyl)-4-fluoro-1-methyl-1H-pyrazole-5-carboxamide] | 13.3 nM |
| Cc1cnn(C)c1C(=O)Nc1ccc(OCCN2CCC2)c(-c2c(C)ncnc2C)c1 [Compound 327, N-(4-(2-(azetidin-1-yl)ethoxy)-3-(4,6-dimethylpyrimidin-5-yl)phenyl)-1,4-dimethyl-1H-pyrazole-5-carboxamide] | 15.9 nM |
| Cc1ncnc(C)c1-c1cc(NC(=O)[C@H]2C[C@H]2F)ccc1OCCN1CCCC1 [Compound 212, (1R,2R)—N-(3-(4,6-dimethylpyrimidin-5-yl)-4-(2-(pyrrolidin-1-yl)ethoxy)phenyl)-2-fluorocyclopropane-1-carboxamide] | 5.56 nM |
| Cc1ncnc(C)c1-c1cc(NC(=O)CN2CCn3nccc3C2)ccc1OCCN1CCCC1 [Compound 239, 2-(6,7-dihydropyrazolo[1,5-a]pyrazin-5 (4H)-yl)-N-(3-(4,6-dimethylpyrimidin-5-yl)-4-(2-(pyrrolidin-1-yl)ethoxy)phenyl)acetamide] | 92.3 nM |
| Cc1ncnc(C)c1-c1cc(NC(=O)c2ccccc2)ccc1OCCN1C[C@H]2C[C@H]2C1 [Compound 384, N-[4-[2-[(1R,5S)-3-azabicyclo[3.1.0]hexan-3-yl]ethoxy]-3-(4,6-dimethylpyrimidin-5-yl)phenyl]benzamide] | 3.63 nM |
| Cc1cc(C(=O)Nc2ccc(OCCN3CCCC3)c(-c3c(C)ncnc3C)c2)co1 [Compound 204, N-(3-(4,6-dimethylpyrimidin-5-yl)-4-(2-(pyrrolidin-1-yl)ethoxy)phenyl)-5-methylfuran-3-carboxamide] | 13.2 nM |
| Cc1ncnc(C)c1-c1cc(NC(=O)CCc2ccccc2)ccc1OCCN1CCCC1 [Compound 255, N-(3-(4,6-dimethylpyrimidin-5-yl)-4-(2-(pyrrolidin-1-yl)ethoxy)phenyl)-3-phenylpropanamide] | 1.72 nM |
| Cc1ncoc1C(=O)Nc1ccc(OC[C@H]2CCCCN2)c(-c2c(C)ncnc2C)c1 [Compound 428, (R)—N-(3-(4,6-dimethylpyrimidin-5-yl)-4-(piperidin-2-ylmethoxy)phenyl)-4-methyloxazole-5-carboxamide] | 35.3 nM |
| Cc1cnoc1C(=O)Nc1ccc(O[C@@H]2CCCNC2)c(-c2c(C)ncnc2C)c1 [Compound 414, (R)—N-(3-(4,6-dimethylpyrimidin-5-yl)-4-(piperidin-3-yloxy)phenyl)-4-methylisoxazole-5-carboxamide] | 91 nM |
| Cc1ncnc(C)c1-c1cc(NC(=O)C2CC2)ccc1OC[C@H]1CCCCN1 [Compound 421] | 9.41 nM |
| Cc1nc(C)c(C(=O)Nc2ccc(O[C@@H]3CCCNC3)c(-c3c(C)ncnc3C)c2)s1 [Compound 413, (R)—N-(3-(4,6-dimethylpyrimidin-5-yl)-4-(piperidin-3-yloxy)phenyl)-2,4-dimethylthiazole-5-carboxamide] | 255 nM |
| CC(=N)NCCOc1ccc(NC(=O)C2CC2)cc1-c1c(C)ncnc1C [Compound 451, N-(4-(2-acetimidamidoethoxy)-3-(4,6-dimethylpyrimidin-5-yl)phenyl)cyclopropanecarboxamide] | 52.6 nM |
| COc1ccc(CC(=O)Nc2ccc(OCCN3CCC3)c(-c3c(C)ncnc3C)c2)cc1 [Compound 313, N-(4-(2-(azetidin-1-yl)ethoxy)-3-(4,6-dimethylpyrimidin-5-yl)phenyl)-2-(4-methoxyphenyl)acetamide] | 1.7 nM |
| Cc1ncnc(C)c1-c1cc(NC(=O)[C@@H]2C[C@H]2F)ccc1OC[C@H]1CCCCN1 [Compound 422, (1S,2R)—N-[3-(4,6-dimethylpyrimidin-5-yl)-4-[[(2R)-2-piperidyl]methoxy]phenyl]-2-fluoro-cyclopropanecarboxamide] | 4.58 nM |
| Cc1ncnc(C)c1-c1cc(NC(=O)C2CC2)ccc1OCCN1C[C@@H]2C[C@H]1CO2 [Compound 336, N-[3-(4,6-dimethylpyrimidin-5-yl)-4-[2-[(1S,4S)-2-oxa-5-azabicyclo[2.2.1]heptan-5-yl]ethoxy]phenyl]cyclopropanecarboxamide] | 6.42 nM |
| Cc1ncnc(C)c1-c1cc(NC(=O)C2CC2)ccc1OCCN(C)CCS(C)(=O)=O [Compound 364, N-(3-(4,6-dimethylpyrimidin-5-yl)-4-(2-(methyl(2-(methylsulfonyl)ethyl)amino)ethoxy)phenyl)cyclopropanecarboxamide] | 368 nM |
| Cc1ncnc(C)c1-c1cc(NC(=O)c2c(F)cnn2C)ccc1OC1CNC1 [Compound 402, N-(4-(azetidin-3-yloxy)-3-(4,6-dimethylpyrimidin-5-yl)phenyl)-4-fluoro-1-methyl-1H-pyrazole-5-carboxamide] | 2.87 nM |
| COCCNCCOc1ccc(NC(=O)c2ccccc2)cc1-c1c(C)ncnc1C [Compound 371, N-(3-(4,6-dimethylpyrimidin-5-yl)-4-(2-((2-methoxyethyl)amino)ethoxy)phenyl)benzamide] | 4.77 nM |

| Compound | Ki |
| --- | --- |
| Cc1ncnc(C)c1-c1cc(NC(=O)C2CC2)ccc1O[C@@H]1CCCNC1 [Compound 418, (R)—N-(3-(4,6-dimethylpyrimidin-5-yl)-4-(piperidin-3-yloxy)phenyl)cyclopropanecarboxamide] | 7.29 nM |
| Cc1ncnc(C)c1-c1cc(NC(=O)[C@@H]2C[C@@H]2F)ccc1OC[C@H]1CCCCN1 [Compound 424, (1S,2S)—N-(3-(4,6-dimethylpyrimidin-5-yl)-4-(((R)-piperidin-2-yl)methoxy)phenyl)-2-fluorocyclopropane-1-carboxamide] | 12.5 nM |
| Cc1ncnc(C)c1-c1cc(NC(=O)C2(CF)CC2)ccc1OCCN1CCC1 [Compound 328, N-(4-(2-(azetidin-1-yl)ethoxy)-3-(4,6-dimethylpyrimidin-5-yl)phenyl)-1-(fluoromethyl)cyclopropane-1-carboxamide] | 13.6 nM |
| Cc1ncnc(C)c1-c1cc(NC(=O)C2CC2)ccc1OCCN(C)CCF [Compound 360, N-(3-(4,6-dimethylpyrimidin-5-yl)-4-(2-((2-fluoroethyl)(methyl)amino)ethoxy)phenyl)cyclopropanecarboxamide] | 11 nM |
| Cc1nc(C)c(C(=O)Nc2ccc(OCCN3CCCC3)c(-c3c(C)ncnc3C)c2)s1 [Compound 215, N-(3-(4,6-dimethylpyrimidin-5-yl)-4-(2-(pyrrolidin-1-yl)ethoxy)phenyl)-2,4-dimethylthiazole-5-carboxamide] | 15.7 nM |
| Cc1ncnc(C)c1-c1cc(NC(=O)C2CC2)ccc1OCCN1CC(O)C1 [Compound 388, N-[3-(4,6-dimethylpyrimidin-5-yl)-4-[2-(3-hydroxyazetidin-1-yl)ethoxy]phenyl]cyclopropanecarboxamide] | 13.7 nM |
| Cc1ncnc(C)c1-c1cc(NC(=O)c2cnoc2C)ccc1OC[C@H]1CCCCN1 [Compound 431, (R)—N-(3-(4,6-dimethylpyrimidin-5-yl)-4-(piperidin-2-ylmethoxy)phenyl)-5-methylisoxazole-4-carboxamide] | 54.9 nM |
| CCc1cc(C(=O)Nc2ccc(OCCN3CCCC3)c(-c3c(C)ncnc3C)c2)[nH]n1 [Compound 205, N-(3-(4,6-dimethylpyrimidin-5-yl)-4-(2-(pyrrolidin-1-yl)ethoxy)phenyl)-3-ethyl-1H-pyrazole-5-carboxamide] | 10.4 nM |
| Cc1ncnc(C)c1-c1cc(NC(=O)Cc2cnco2)ccc1OCCN1CCCC1 [Compound 260, N-[3-(4,6-dimethylpyrimidin-5-yl)-4-(2-pyrrolidin-1-ylethoxy)phenyl]-2-oxazol-5-yl-acetamide] | 63.3 nM |
| Cc1ncnc(C)c1-c1cc(NC(=O)c2ccccc2F)ccc1OCCN1CCCC1 [Compound 298, N-(3-(4,6-dimethylpyrimidin-5-yl)-4-(2-(pyrrolidin-1-yl)ethoxy)phenyl)-2-fluorobenzamide] | 16.9 nM |
| Cc1ncnc(C)c1-c1cc(NC(=O)C2CC2)ccc1O[C@@H]1CCNC1 [Compound 403, N-[3-(4,6-dimethylpyrimidin-5-yl)-4-[(3R)-pyrrolidin-3-yl]oxy-phenyl]cyclopropanecarboxamide] | 24.9 nM |
| Cc1ncnc(C)c1-c1cc(NC(=O)c2ncoc2C)ccc1OCCN1CCCC1 [Compound 221, N-(3-(4,6-dimethylpyrimidin-5-yl)-4-(2-(pyrrolidin-1-yl)ethoxy)phenyl)-5-methyloxazole-4-carboxamide] | 11.4 nM |
| Cc1ncnc(C)c1-c1cc(NC(=O)C2CC2)ccc1OCCN1CCC2(CCOC2=O)CC1 [Compound 350, N-(3-(4,6-dimethylpyrimidin-5-yl)-4-(2-(1-oxo-2-oxa-8-azaspiro[4.5]decan-8-yl)ethoxy)phenyl)cyclopropanecarboxamide] | 43.1 nM |
| Cc1ccc(C(=O)Nc2ccc(OCCN3CCC3)c(-c3c(C)ncnc3C)c2)cc1 [Compound 323, N-(4-(2-(azetidin-1-yl)ethoxy)-3-(4,6-dimethylpyrimidin-5-yl)phenyl)-4-methylbenzamide] | 3.77 nM |
| Cc1ncnc(C)c1-c1cc(NC(=O)C2(O)CC2)ccc1OCCN1CCCC1 [Compound 283, N-[3-(4,6-dimethylpyrimidin-5-yl)-4-(2-pyrrolidin-1-ylethoxy)phenyl]-1-hydroxy-cyclopropanecarboxamide] | 24 nM |
| Cc1ncnc(C)c1-c1cc(NC(=O)C2CC2)ccc1OCCN1CC2(COC2)C1 [Compound 345, N-(4-(2-(2-oxa-6-azaspiro[3.3]heptan-6-yl)ethoxy)-3-(4,6-dimethylpyrimidin-5-yl)phenyl)cyclopropanecarboxamide] | 19.5 nM |
| CCN(CC)CCOc1ccc(NC(=O)C2CC2)cc1-c1c(C)ncnc1C [Compound 370, N-(4-(2-(diethylamino)ethoxy)-3-(4,6-dimethylpyrimidin-5-yl)phenyl)cyclopropanecarboxamide] | 78.6 nM |

Same assay, conditions: read-out: 5-HT2A serotonin binding Ki value

| Ki | Compound |
| --- | --- |
| 10.5 nM | Cc1nscc1C(=O)Nc1ccc(OCCN2CCCC2)c(-c2c(C)ncnc2C)c1 [Compound 223, N-(3-(4,6-dimethylpyrimidin-5-yl)-4-(2-(pyrrolidin-1-yl)ethoxy)phenyl)-3-methylisothiazole-4-carboxamide] |
